pEC50: −log10 of the molar value. “Also recorded” adds a separate entry of the source. Like-named read-outs stand apart in the source and are kept apart here. Where a SMILES comes first, the peptide text is derived from it. Bridges are numbered along the chain shown (N, C = ends). Roman numbers before positions name the chains, in order. Where no end group is shown, it is not given here. [ ]: non-standard residue; d: D form. Nle = CCCC[C@H](N)C(=O)O
Key:
eosinophils = assay: Eosinophil cytotoxicity by real-time impedance tracing (xCELLigence RTCA); type: cell-based, IL-5 transgenic mice; settings: for cytotoxic effect on eosinophils as measured by AUC: 3 μg/ml; for Average magnitude of largest AUC: AUC of normalized cell index, negative AUC = cell death; for average AUC (decrease in cell index): 30 μg/ml; for normalized cell index tracings over time (peptide activity): after 24 hours
Excerpt: IL-5 transgenic mice were euthanized and blood collected by cardiac puncture through the left ventricle. Red blood cells (RBCs) were lysed using a red blood cell lysis solution (Miltenyi Biotec, Auburn CA). Eosinophils were isolated by negative selection using biotin-conjugated antibodies (CD45R, Thy 1.2, F4/80) and magnetic beads, as previously described (see, Dy, A. B. C., et al., 2019 J Immunol 203: 1122-1130; Ledford, J. G., et al., 2012 PLoS One 7: e32436). Purity of each preparation was verified using standard morphometric analysis of cytocentrifuged slides stained with Easy III™ rapid differential staining kit (Azer Scientific, Morgantown Pa.) to be greater than 95%.
High throughput real-time monitoring of eosinophil cell death was assessed by measuring electrical impedance using the xCELLigence Real-Time Cell Analyzer (ACEA Biosciences, San Diego Calif.) as previously described (see, Dy, A. B. C., et al., 2019 J Immunol 203: 1122-1130; Flynn, A. N., et al., FASEB J 27: 1498-1510; Zeng, C., et al., Environ Res 164: 452-458). Using 96-well gold electrode coated plates (E-plates, ACEA Biosciences) incubated at 37° C. and 5% CO2, an initial background reading was obtained with media only. In a total volume of […] were seeded at 1×10^6 cells/well and allowed to settle for ˜5 hours. Test compounds were added at various concentrations (1, 3, 10 and 30 μg/ml) and changes in electrical impedance were measured over time. Impedance measurements were calculated and presented as normalized cell index (see, Flynn, A. N., et al., FASEB J 27: 1498-1510; Zeng, C., et al., Environ Res 164: 452-458), where a decrease in cell index corresponds to an increase in eosinophil cytotoxicity. Impedance tracings over time were derived from averages of 3-4 technical replicates. To quantify and compare cytotoxicity, the area under the curve (AUC) was calculated using cell index values. Half maximal effective concentration (EC50) values were generated using equivalent molar concentrations and their corresponding dose-response curves for each peptidomimetic.

mouse model of asthma = assay: HDM experimental allergen challenge, in vivo mouse model of asthma; set-up: species or system mice; settings: pre-clinical mouse model of asthma; preliminary data
Excerpt: FIG. 1A-C. Evaluation of SP-A-derived 10-mer native peptide in an in vivo mouse model of asthma. A) Schematic of HDM experimental allergen challenge. B) Newtonian resistance
(Rn) during methacholine challenge of wild-type mice 6 days after terminal HDM challenge. C) Total eosinophil counts in BAL (left panel) and mucin production (right panel) by PAS scoring. Unpaired t-test, *p<0.05, **p<0.01.

[1] = Table 3 summary of lead peptidomimetics, eosinophils, RTCA, read-out: EC50

Molecule	Average magnitude of largest AUC (eosinophils; eosinophils, RTCA)	Concentration at which average AUC is largest (eosinophils; eosinophils, RTCA) [µM]	pEC50 (eosinophils)	also measured
CSCC[C@H](NC(=O)[C@H](CCC(=O)O)NC(=O)[C@@H](NC(=O)[C@H](CSSC[C@H](NC(=O)[C@H](CCC(N)=O)NC(=O)[C@H](CCC(=O)O)NC(=O)[C@H](CCCCN)NC(C)=O)C(=O)N[C@H](C(=O)N[C@@H](CCC(=O)O)C(=O)N[C@@H](CCSC)C(=O)N[C@@H](Cc1ccc(O)cc1)C(=O)N[C@H](C(=O)N[C@@H](CC(=O)O)C(N)=O)[C@@H](C)O)C(C)C)NC(=O)[C@H](CCC(N)=O)NC(=O)[C@H](CCC(=O)O)NC(=O)[C@H](CCCCN)NC(C)=O)C(C)C)C(=O)N[C@@H](Cc1ccc(O)cc1)C(=O)N[C@H](C(=O)N[C@@H](CC(=O)O)C(N)=O)[C@@H](C)O [Peptidomimetic 868, (Ac-KEQCVEMYTD-NH2)2] (I: Ac-KEQCVEMYTD-NH2 / II: Ac-KEQCVEMYTD-NH2; disulfide I:4-II:4)	−9.21	1.17		cytotoxic effect on eosinophils as measured by AUC (eosinophils): most robust cytotoxic effect; also recorded: most comparable response to full-length SP-A; pEC50 (eosinophils; [1]): 4.96
CCCC[C@H](NC(=O)[C@H](CCC(=O)O)NC(=O)[C@@H](NC(=O)[C@H](CS)NC(=O)[C@H](CCC(N)=O)NC(=O)[C@H](CCC(=O)O)NC(=O)[C@H](CCCCN)NC(C)=O)C(C)C)C(=O)N[C@@H](Cc1ccc(O)cc1)C(=O)N[C@H](C(=O)N[C@@H](CC(=O)O)C(N)=O)[C@@H](C)O [Peptidomimetic 882, Ac-KEQCVE-Nle-YTD-NH2] (Ac-KEQCVE[Nle]YTD-NH2)			5.52	
CCCC[C@H](NC(=O)[C@H](CCC(=O)O)NC(=O)[C@@H](NC(=O)[C@H](C)NC(=O)[C@H](CCC(N)=O)NC(=O)[C@H](CCC(=O)O)NC(=O)[C@H](CCCCN)NC(=O)CNC(=O)[C@H](Cc1c[nH]c2ccccc12)NC(C)=O)C(C)C)C(=O)N[C@@H](Cc1ccc(O)cc1)C(=O)N[C@H](C(=O)N[C@@H](CC(=O)O)C(N)=O)[C@@H](C)O [Peptidomimetic 891, Ac-WGKEQAVE-Nle-YTD-NH2] (Ac-WGKEQAVE[Nle]YTD-NH2)			5.99	
CCCC[C@H](NC(=O)[C@H](CCC(=O)O)NC(=O)[C@@H](NC(=O)[C@H](CS)NC(=O)[C@H](CCC(N)=O)NC(=O)[C@H](CCC(=O)O)NC(=O)[C@H](CCCCN)NC(=O)CNC(=O)[C@H](Cc1c[nH]c2ccccc12)NC(C)=O)C(C)C)C(=O)N[C@@H](Cc1ccc(O)cc1)C(=O)N[C@H](C(=O)N[C@@H](CC(=O)O)C(N)=O)[C@@H](C)O [Peptidomimetic 892, Ac-WGKEQCVE-Nle-YTD-NH2] (Ac-WGKEQCVE[Nle]YTD-NH2)	−1.07	0.10	8.10	magnitude of the calculated AUCs compared with full-length SP-A, 10-mer, 20-mer and several peptidomimetics (eosinophils; eosinophils, RTCA): much smaller
CCCC[C@H](NC(=O)[C@H](CCC(=O)O)NC(=O)[C@@H](NC(=O)[C@H](CS)NC(=O)[C@H](CCC(N)=O)NC(=O)[C@H](CCC(=O)O)NC(=O)[C@H](CCCCN)NC(=O)CNC(=O)[C@H](CCCNC(=N)N)NC(C)=O)C(C)C)C(=O)N[C@@H](Cc1ccc(O)cc1)C(=O)N[C@H](C(=O)N[C@@H](CC(=O)O)C(N)=O)[C@@H](C)O [Peptidomimetic 893, Ac-RGKEQCVE-Nle-YTD-NH2] (Ac-RGKEQCVE[Nle]YTD-NH2)			7.42	
CCCC[C@H](NC(=O)[C@H](CCC(=O)O)NC(=O)[C@@H](NC(=O)[C@H](CS)NC(=O)[C@H](CCC(N)=O)NC(=O)[C@H](CCC(=O)O)NC(=O)[C@H](CCCCN)NC(=O)CNC(=O)[C@@H](Cc1c[nH]c2ccccc12)NC(C)=O)C(C)C)C(=O)N[C@@H](Cc1ccc(O)cc1)C(=O)N[C@H](C(=O)N[C@@H](CC(=O)O)C(N)=O)[C@@H](C)O [Peptidomimetic 894, Ac-wGKEQCVE-Nle-YTD-NH2] (Ac-[dW]GKEQCVE[Nle]YTD-NH2)	−1.63	0.01	7.92	magnitude of the calculated AUCs compared with full-length SP-A, 10-mer, 20-mer and several peptidomimetics (eosinophils; eosinophils, RTCA): much smaller
Ac-GDFRYSDGTPVNYTNWYRGE-NH2 [Peptidomimetic 889]			5.75	
Ac-KEQAVEMYTD-NH2 [Peptidomimetic 884, Ac-KEQAVEMYTD-NH2]			4.97	
Ac-KEQCVEMYTD (N-terminus assumed) [10-mer peptide, KEQCVEMYTD, reference compound]	−2.62	24.00	4.80	average AUC (decrease in cell index) (eosinophils; eosinophils, RTCA): -2.62; pEC50 (eosinophils; [1]): 4.80; normalized cell index tracings over time (peptide activity) (eosinophils; eosinophils, RTCA): decline in peptide activity after 24 hours; airway hyperresponsiveness (mouse model of asthma): reduce; airway mucus production (mouse model of asthma): reduce; eosinophilia (mouse model of asthma): reduce
Ac-KEQCVEMYTD-NH2 [Peptidomimetic 856, Ac-KEQCVEMYTD-NH2]			5.09	
Ac-KEQCVEMYTD-OH [Peptidomimetic 870, Ac-KEQCVEMYTD-acid]			4.97	
Ac-KEQSVEMYTD-NH2 [Peptidomimetic 883, Ac-KEQSVEMYTD-NH2]			5.03	
Ac-SDGTPVNYTNWYRGEPAGRGKEQ-NH2 [Peptidomimetic 888]			7.46	
Ac-WGKEQCVEMYTD-NH2 [Peptidomimetic 867, Ac-WGKEQCVEMYTD-NH2]	−9.06	1.96		cytotoxic effect on eosinophils as measured by AUC (eosinophils): most robust cytotoxic effect; also recorded: most comparable response to full-length SP-A; pEC50 (eosinophils; [1]): 6.02
Full-length SP-A: Full-length surfactant protein A; served as the positive control for eosinophil cell death	−13.89	0.86		average AUC (decrease in cell index) (eosinophils; eosinophils, RTCA): −13.89; eosinophil cell death (eosinophils; eosinophils, RTCA): induced eosinophil cell death in a dose-dependent manner; pEC50 (eosinophils; eosinophils, RTCA, concentration range 1, 3, 10 and 30 μg/ml, read-out: EC50 (half maximal effective concentration, based on AUC at each dose)): 6.80
H-KEQCVEMYTD-OH [Peptidomimetic 871, H-KEQCVEMYTD-acid]			5.60	
PAGRGKEQCVEMYTDGQWND [20-mer peptide, reference compound]	−3.50	13.10	4.83	average AUC (decrease in cell index) (eosinophils; eosinophils, RTCA): -3.50; pEC50 (eosinophils; [1]): 4.83; normalized cell index tracings over time (peptide activity) (eosinophils; eosinophils, RTCA): decline in peptide activity after 24 hours; airway hyperresponsiveness (mouse model of asthma): reduce; airway mucus production (mouse model of asthma): reduce; eosinophilia (mouse model of asthma): reduce
